Results: PubChem BioAssay AID1963961 (Molecular Pharmacology Branch, DTP, NCI, 2024)

Test system: K98450-129-R-PDC multicell spheroids, viability
Test: Anticancer human tumor K98450-129-R-PDC patient-derived colon adenocarcinoma cell line growth inhibition [PI3K]
Details: for viability, T/C: stronger effect = lower value; active = viability on the fitted dose curve at most 10% of control; inactive = the rest
How it was run: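 Combination activity was assessed by viability in multicellular tumor spheroids carrying HUVEC and MSC components. Agents were tested with PI3K inhibitors from a Cmax-based top dose (or 10 microM) downward in half-log increments.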

[1] = curve of first compound, second compound 0.0316 µM
[2] = curve of first compound, second compound 0.1 µM
[3] = curve of first compound, second compound 0.316 µM
[4] = curve of first compound, second compound 1 µM
[5] = second compound 0.0316 µM, first compound 0.0316 µM
[6] = second compound 0.0316 µM, first compound 0.1 µM
[7] = second compound 0.1 µM, first compound 0.0316 µM
[8] = second compound 0.1 µM, first compound 0.1 µM
[9] = second compound 0.316 µM, first compound 0.0316 µM
[10] = second compound 0.316 µM, first compound 0.1 µM
[11] = second compound 1 µM, first compound 0.0316 µM
[12] = second compound 1 µM, first compound 0.1 µM
[13] = curve of first compound, second compound 3.16 µM
[14] = curve of first compound, second compound 10 µM
[15] = second compound 0.0316 µM, first compound 0.316 µM
[16] = second compound 0.0316 µM, first compound 1 µM
[17] = second compound 0.0316 µM, first compound 3.16 µM
[18] = second compound 0.0316 µM, first compound 10 µM
[19] = second compound 0.1 µM, first compound 0.316 µM
[20] = second compound 0.1 µM, first compound 1 µM
[21] = second compound 0.1 µM, first compound 3.16 µM
[22] = second compound 0.1 µM, first compound 10 µM
[23] = second compound 0.316 µM, first compound 0.316 µM
[24] = second compound 0.316 µM, first compound 1 µM
[25] = second compound 0.316 µM, first compound 3.16 µM
[26] = second compound 0.316 µM, first compound 10 µM
[27] = second compound 1 µM, first compound 0.316 µM
[28] = second compound 1 µM, first compound 1 µM
[29] = second compound 1 µM, first compound 3.16 µM
[30] = second compound 1 µM, first compound 10 µM
[31] = second compound 3.16 µM, first compound 0.0316 µM
[32] = second compound 3.16 µM, first compound 0.1 µM
[33] = second compound 3.16 µM, first compound 0.316 µM
[34] = second compound 3.16 µM, first compound 1 µM
[35] = second compound 3.16 µM, first compound 3.16 µM
[36] = second compound 3.16 µM, first compound 10 µM
[37] = second compound 10 µM, first compound 0.0316 µM
[38] = second compound 10 µM, first compound 0.1 µM
[39] = second compound 10 µM, first compound 0.316 µM
[40] = second compound 10 µM, first compound 1 µM
[41] = second compound 10 µM, first compound 3.16 µM
[42] = second compound 10 µM, first compound 10 µM
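Also: spheroids exposed to agents for seven days before read-out.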

CC(=O)c1c(C)c2cnc(Nc3ccc(N4CCNCC4)cn3)nc2n(C2CCCC2)c1=O + CC(Nc1ccc2c(c1)OCCn1cc(N3C(=O)OCC3C(F)F)nc1-2)C(N)=O
inactive: viability, T/C (second compound 0.00316 µM, first compound 0.000316 µM) 113% | viability, T/C (second compound 0.00316 µM, first compound 0.001 µM) 103% | viability, T/C (second compound 0.00316 µM, first compound 0.00316 µM) 105% | viability, T/C (second compound 0.00316 µM, first compound 0.01 µM) 97.2% | viability, T/C (second compound 0.00316 µM, first compound 0.0316 µM) 99.9% | viability, T/C (second compound 0.00316 µM, first compound 0.1 µM) 95.7% | viability, T/C (second compound 0.01 µM, first compound 0.000316 µM) 109% | viability, T/C (second compound 0.01 µM, first compound 0.001 µM) 101% | viability, T/C (second compound 0.01 µM, first compound 0.00316 µM) 104% | viability, T/C (second compound 0.01 µM, first compound 0.01 µM) 91.2% | viability, T/C (second compound 0.01 µM, first compound 0.0316 µM) 103% | viability, T/C (second compound 0.01 µM, first compound 0.1 µM) 92.8% | viability, T/C (second compound 0.0316 µM, first compound 0.000316 µM) 111% | viability, T/C (second compound 0.0316 µM, first compound 0.001 µM) 95.7% | viability, T/C (second compound 0.0316 µM, first compound 0.00316 µM) 103% | viability, T/C (second compound 0.0316 µM, first compound 0.01 µM) 94.9% | viability, T/C [5] 100% | viability, T/C [6] 95.6% | viability, T/C (second compound 0.1 µM, first compound 0.000316 µM) 97.7% | viability, T/C (second compound 0.1 µM, first compound 0.001 µM) 100% | viability, T/C (second compound 0.1 µM, first compound 0.00316 µM) 92.7% | viability, T/C (second compound 0.1 µM, first compound 0.01 µM) 94.8% | viability, T/C [7] 99.1% | viability, T/C [8] 103% | viability, T/C (second compound 0.316 µM, first compound 0.000316 µM) 94.3% | viability, T/C (second compound 0.316 µM, first compound 0.001 µM) 96.5% | viability, T/C (second compound 0.316 µM, first compound 0.00316 µM) 100% | viability, T/C (second compound 0.316 µM, first compound 0.01 µM) 93.3% | viability, T/C [9] 103% | viability, T/C [10] 91.4% | viability, T/C (second compound 1 µM, first compound 0.000316 µM) 89% | viability, T/C (second compound 1 µM, first compound 0.001 µM) 95.8% | viability, T/C (second compound 1 µM, first compound 0.00316 µM) 94.1% | viability, T/C (second compound 1 µM, first compound 0.01 µM) 95.2% | viability, T/C [11] 96.1% | viability, T/C [12] 82%
> 0.1 µM: IC50 (curve of first compound, second compound 0.00316 µM) | IC50 (curve of first compound, second compound 0.01 µM) | IC50 [1] | IC50 [2] | IC50 [3] | IC50 [4]

COc1c(OCCCN2CCOCC2)ccc2c3n(c(=NC(=O)c4cnc(N)nc4)nc12)CCN3
> 1 µM: IC50 (compound alone, run of 04/25/2023)
inactive: viability, T/C (compound 0.00316 µM) 97.8% [middle of 8 runs] | viability, T/C (compound 0.01 µM) 101% [middle of 8 runs] | viability, T/C (compound 0.0316 µM) 97.6% [middle of 8 runs] | viability, T/C (compound 0.1 µM) 77.9% [middle of 8 runs] | viability, T/C (compound 0.316 µM) 65.8% [middle of 8 runs] | viability, T/C (compound 1 µM) 54.2% [middle of 8 runs]

CC(Cn1ccc(-c2ccc(C#N)c(Cl)c2)n1)NC(=O)c1cc(C(C)O)[nH]n1 (stereo not drawn) + Cc1nc(NC(=O)N2CCCC2C(N)=O)sc1-c1ccnc(C(C)(C)C(F)(F)F)c1
inactive: viability, T/C [5] 103% | viability, T/C [6] 98.6% | viability, T/C [15] 107% | viability, T/C [16] 105% | viability, T/C [17] 99.8% | viability, T/C [18] 103% | viability, T/C [7] 108% | viability, T/C [8] 99.3% | viability, T/C [19] 104% | viability, T/C [20] 94.2% | viability, T/C [21] 99.5% | viability, T/C [22] 103% | viability, T/C [9] 104% | viability, T/C [10] 94.4% | viability, T/C [23] 99.3% | viability, T/C [24] 98.6% | viability, T/C [25] 102% | viability, T/C [26] 103% | viability, T/C [11] 86.4% | viability, T/C [12] 101% | viability, T/C [27] 98.3% | viability, T/C [28] 88.8% | viability, T/C [29] 98.2% | viability, T/C [30] 84.8% | viability, T/C [31] 85.1% | viability, T/C [32] 81.4% | viability, T/C [33] 86.8% | viability, T/C [34] 84% | viability, T/C [35] 94% | viability, T/C [36] 85.8% | viability, T/C [37] 75.6% | viability, T/C [38] 72.1% | viability, T/C [39] 80.3% | viability, T/C [40] 81.1% | viability, T/C [41] 80.8% | viability, T/C [42] 74.3%
> 10 µM: IC50 [1] | IC50 [2] | IC50 [3] | IC50 [4] | IC50 [13] | IC50 [14]

CC1(C)CCC(Nc2ncc(C(F)(F)F)c(-c3c[nH]c4c(P(C)(C)=O)c(C#N)ccc34)n2)CN1 (stereo not drawn) + CC(Nc1ncnc2nc[nH]c12)c1cc2cccc(Cl)c2c(=O)n1-c1ccccc1
5.35 µM: IC50 [13]
inactive: viability, T/C [5] 104% | viability, T/C [6] 85.5% | viability, T/C [15] 67.9% | viability, T/C [16] 67.4% | viability, T/C [17] 66.2% | viability, T/C [18] 44.5% | viability, T/C [7] 139% | viability, T/C [8] 108% | viability, T/C [19] 69.2% | viability, T/C [20] 68.7% | viability, T/C [21] 78.7% | viability, T/C [22] 45.2% | viability, T/C [9] 101% | viability, T/C [10] 98.4% | viability, T/C [23] 75.3% | viability, T/C [24] 58.6% | viability, T/C [25] 76.8% | viability, T/C [26] 45% | viability, T/C [11] 107% | viability, T/C [12] 93.6% | viability, T/C [27] 74.7% | viability, T/C [28] 64.6% | viability, T/C [29] 62.9% | viability, T/C [30] 36.9% | viability, T/C [31] 101% | viability, T/C [32] 82.4% | viability, T/C [33] 63.8% | viability, T/C [34] 70.9% | viability, T/C [35] 65.1% | viability, T/C [36] 36.7% | viability, T/C [37] 94.9% | viability, T/C [38] 88.5% | viability, T/C [39] 63.3% | viability, T/C [40] 62% | viability, T/C [41] 59.6% | viability, T/C [42] 21.6%
> 10 µM: IC50 [1] | IC50 [3]
7.06 µM: IC50 [2]
4.51 µM: IC50 [4]
2.33 µM: IC50 [14]
